The term logP denotes the decadic logarithm of the partition coefficient of the neutral form, usually between octanol and water. Read a high logP as a more lipophilic compound. For orientation: logD means the decadic logarithm of the distribution of all forms, ionised or not, between an organic phase and buffer at a given pH. Low values mean a more hydrophilic compound, high ones a more lipophilic compound.

Data set [1] in a line: method code SF-RC, from DOI: 10.1016/j.bmc.2015.06.036, PMID: 26145817. The following applies: pH 7.4.
Experiment in data set [2]: not given
This is another data set of the same source.

Data set [3] in a line: method code SF, from DOI: 10.1021/jm00167a034, PMID: 2329572. The following applies: pH 7.4.
Data set [4] in a line: method code SF-HPLC, from DOI: 10.1016/0378-5173(86)90195-x. The following applies: pH 7.4.
Data set [5] in a line: method code SF-RC, from DOI: 10.1021/acs.jmedchem.6b00849, PMID: 27690428. The following applies: pH 7.4.
Data set [6] can be described thus: method code SF-RC, from DOI: 10.1021/jm201482p, PMID: 22339166. The following applies: pH 6.8.
Data set [7] can be described thus: method code SF-HPLC, from DOI: 10.1584/jpestics.11.469.
Data set [8] can be described thus: method code SF-RC, from DOI: 10.1016/j.ejmech.2014.07.070, PMID: 25063945. The following applies: pH 7.4.
Data set [9] can be described thus: method code SF-HPLC, from DOI: 10.1016/j.jpba.2011.06.023, PMID: 21782368. The following applies: pH 7.4.
Data set [10] is described as follows: method code SF-AS, from DOI: 10.1135/cccc19831077. The following applies: pH 3.5.
Data set [11] is described as follows: method code SF-AS, from DOI: 10.1016/s0022-3565(25)32601-7, PMID: 7194909.
The nature of data set [12]: method code SF-HPLC, from DOI: 10.1039/p29890001935.
Data set [13] can be described thus: method code SF-AS, from DOI: 10.1016/0223-5234(94)90120-1. The following applies: pH 7.4.
The nature of data set [14]: method code RP-HPLC, from DOI: 10.1021/jm970292n, PMID: 9371243.
The nature of data set [15]: method code SF-AS, from DOI: 10.1002/ps.2780140302. The following applies: pH 5.0.
A short description of data set [16]: method code SF-HPLC, from DOI: 10.1016/j.bmc.2011.11.059, PMID: 22189276. The following applies: pH 7.4.
Experiment in data set [17]: not given
The source holds these as a separate data set.

Data set [18] in a line: method code SF-AS, from DOI: 10.1016/s0014-827x(98)00024-x, PMID: 9679281.
A short description of data set [19]: method code SF-RC, from DOI: 10.1021/jm301492y, PMID: 23214511. The following applies: pH 7.4.
Data set [20] in a line: method code SF-HPLC, from PMID: 1854437. The following applies: pH 7.4.
Data set [21] can be described thus: method code SF-AS, from Zsuzsa, H.; Nora, K. (1979). Study on the partition coefficient of acetanilides. Nehezvegyp. Kut. Intez. Kozl., 8, 139-146.
Data set [22] in a line: method code SF-AS, from DOI: 10.1039/p29900001191. The following applies: pH 12.0.
Data set [23] is described as follows: method code SF-RC, from DOI: 10.1016/j.bmcl.2015.05.048, PMID: 26073008. The following applies: pH 7.4.
Data set [24] can be described thus: method code SF, from DOI: 10.1016/j.ijpharm.2011.07.043, PMID: 21839822. The following applies: pH 7.4.
For data set [25] the following is noted: pH 7.4.
Experiment in data set [26]: not given
This is another data set of the same source.

Data set [27] in a line: method code SF, from DOI: 10.1016/j.ejmech.2012.08.015, PMID: 22960698.
Experiment in data set [28]: not given
This is another data set of the same source.

Experiment in data set [29]: not given
This is another data set of the same source.

`C=CCN1CC[C@]23c4c5ccc(O)c4O[C@H]2C(=O)CC[C@@]3(O)[C@H]1C5` returned a logP of 1.53.
In turn, `Cc1cc(N(C)CCCCF)n2nc(C)c(-c3ccc(Cl)cc3Cl)c2n1` returned a logD in data set [1] of 2.75.
On to `O=P(Oc1ccccc1)(Oc1ccccc1)Oc1ccccc1`, for which the logP in data set [2] was found to be 3.9.
`Cc1cn(C2CC(N=[N+]=[N-])C(COC(=O)C(N)Cc3ccc(O)cc3)O2)c(=O)[nH]c1=O` (centres undefined): the logD in [3] was -0.03.
`CC(=O)OCOc1ccccc1C(=O)NCN1CCOCC1` gave a logD in [4] of 0.27.
In data set [5], `N#Cc1ccc(N(Cc2ccc(I)cc2)c2cncnc2)cc1` returned a logD of 2.16.
As for `O=c1[nH]c(=O)n([C@H]2C[C@H](O)[C@@H](CO[P@]3(=O)OCc4ccccc4O3)O2)cc1I`, the logD in data set [6] turned out to be 0.65.
`CCOC(=O)C(C)Oc1ccc(Oc2cnc3cc(C)ccc3n2)cc1` (centres undefined) came in with a logP in data set [7] of 4.11.
In turn, `CN(C)c1ccc(/C=C/C(=O)/C=C/c2ccc(F)cc2)cc1` came in with a logD in data set [8] of 3.89.
For the compound `CCOC(=O)CC(CNC(=O)OC(C)(C)C)c1ccc(Cl)cc1` (centres undefined), the logD in [9] was 2.
As for `COc1cc(CC(=O)O)ccc1OCc1ccccc1`, in data set [10], the logD was determined as 2.59.
Turning to `OC1(c2ccc(Cl)cc2)c2ccccc2C2=NCCCN21` (centres undefined), in [11], the logP turned out to be 1.41.
For the compound `FC(F)(F)c1ccccc1C1OCC2ON=C(c3ccccc3)C2CO1` (centres undefined), the logP in data set [12] turned out to be 4.31.
Take `S=C1SCN(CCc2ccccc2)CN1CCc1ccccc1`: the logD in data set [13] was 5.3.
In turn, `Cc1cccc2c1O[P@](=O)(OC[C@H]1O[C@@H](n3cc(I)c(=O)[nH]c3=O)C[C@@H]1O)OC2` came in with a logD in data set [6] of 0.85.
Compound `O=C1c2c(O)cccc2C(c2ccccc2)c2cccc(O)c21` gave a logP in [14] of 3.81.
For `OC(c1ccc(F)cc1)(c1cncnc1)c1ccccc1Cl` (centres undefined), in data set [15], the logD worked out at 2.2.
Compound `Cc1cn([C@H]2C[C@H](N=[N+]=[N-])[C@@H](COC(=O)c3cccnc3)O2)c(=O)[nH]c1=O` came in with a logD in [3] of 0.2.
Consider `Cc1cc(N(C)CCOCCF)n2nc(C)c(-c3ccc(Cl)cc3Cl)c2n1`, for which the logD in data set [1] was 2.3.
On to `COc1cccc2cc3cccc(OC)c3c(OC)c12`, for which, in [14], the log partition coefficient (logP) amounted to 4.1.
In [16], `CCOC(=O)COC(=O)NCCCC(C)Nc1cc(OC)cc2cccn12` (centres undefined) displayed a logD of 3.09.
As for `CO[C@@]12CCC(=O)[C@]3(C)Oc4c(O)ccc5c4[C@@]31CCN(C)[C@@H]2C5`, the logP in data set [17] is 1.12.
The compound `c1ccc(Nc2nnc(Cn3ccc4ccccc43)s2)cc1` gave a logP in data set [18] of 3.73.
Turning to `CCCCCCNC(=O)c1ccc(O)c(-c2ccccc2)c1`, in data set [19], the logD is 3.67.
With `OC1(c2ccc(Cl)cc2)c2ccccc2C2=NCCCCN21` (centres undefined), the log partition coefficient (logP) in data set [11] amounted to 1.15.
`CNC(=NC#N)NCCSCc1ncn(COC(=O)C(C)(C)C)c1C` had a logD in data set [20] of 1.81.
As for `O=C(CN(C(=O)C(Cl)Cl)c1ccccc1)Nc1ccccc1`, the logP in data set [21] was 2.96.
Turning to `c1ccc(Cc2cc(-c3ccccc3)nnc2NCCN2CCOCC2)cc1`, the logD in data set [22] came out at 3.65.
The compound `O=c1cc(/C=C/c2ccc(O)cc2)oc2ccc(I)cc12` yielded a logD in data set [23] of 1.87.
The compound `OC(c1ccccc1)(c1cncnc1)c1ccc(Cl)cc1Cl` (centres undefined) yielded a log distribution coefficient (logD) in data set [15] of 2.56.
As to `COc1ccc(/C=C/c2cc(=O)c3cc(I)ccc3o2)cc1`, in [23], the logD was 2.15.
Take `CO[C@@]12CCC(=O)[C@@H]3Oc4c(O)ccc5c4[C@@]31CCN(C)[C@@H]2C5`: in data set [17], the logP was 0.6.
`CCCCCCCCCCNC(=O)c1ccccc1O` came in with a logD in data set [24] of 4.53.
On to `Cc1ccc(C)n1Nc1ccc(N2C[C@@H](C)O[C@@H](C)C2)nn1`, for which the log distribution coefficient (logD) in data set [25] turned out to be 2.59.
As for `Cc1cccc(OC(=O)N(C)SN(C)C(=O)Oc2ccc3c(c2)OCO3)c1`, the logP in data set [26] was 2.66.
In data set [12], `Cc1ccccc1C1OCC2ON=C(c3ccccc3)C2CO1` (centres undefined) gave a logP of 2.72.
For `N#Cc1cc(-c2ccccc2)nnc1NCCN1CCOCC1`, in data set [22], the logD amounted to 1.89.
For `O=C(O)Cc1ccc(OCCc2ccccc2)c(Cl)c1`, the logD in [10] was found to be 3.53.
As for `O=C(CC1OC(=O)c2ccccc21)c1ccccc1` (centres undefined), the logP in data set [27] came out at 2.96.
The compound `O=C(NC1CCCCC1)c1ccc(O)c(-c2ccccc2)c1` registered a log distribution coefficient (logD) in [19] of 2.85.
In turn, `N#Cc1ccc(N(Cc2ccc(I)cc2)n2ccnc2)cc1` gave a logD in data set [5] of 1.59.
`CCCCCCCCCCCCNC(=O)c1ccccc1O` registered a logD in data set [24] of 5.37.
`N#Cc1ccc(OCC2CCN(CCCF)CC2)cc1` registered a log partition coefficient (logP) in data set [28] of 2.8.
`CNc1ccc(/C=C/C(=O)/C=C/c2ccc(F)cc2)cc1`: the logD in data set [8] was determined as 2.69.
On to `Cc1[nH]c2ccccc2c1Cc1n[nH]c(=S)n1-c1cccc2ccccc12`, for which the logP in [18] turned out to be 3.02.
In turn, `S=C1SCN(CCc2ccccc2)CN1Cc1ccccc1` gave a logD in [13] of 4.7.
Consider `CN(SN(C)C(=O)Oc1cccc2ccccc12)C(=O)Oc1ccc2c(c1)OCO2`, for which, in [26], the logP was 2.83.
Turning to `Cc1ccc(OP(=O)(Oc2ccccc2)Oc2ccccc2)cc1`, the logP in [2] was found to be 4.4.
As to `CC(=O)Oc1ccc(C(O)(Cn2ccnc2)c2ccc(-c3ccncc3)cc2)cc1` (centres undefined), the logP in data set [29] is 2.61.
On to `Cc1ccc(C)n1NC(=O)Cc1ccc(N2CCOCC2)nn1`, for which the logD in data set [25] was found to be 1.64.
For `CCCCCCOC(=O)NCCCC(C)Nc1cc(OC)cc2cccnc12` (centres undefined), the pH-dependent lipophilicity (logD) in data set [16] was 3.02.
The compound `COc1ccc(C(=O)CC2OC(=O)c3ccccc32)cc1OC` (centres undefined) displayed a logP in [27] of 2.61.
Consider `CC(=O)N(CC(=O)Nc1ccccc1)c1ccccc1`, for which, in data set [21], the lipophilicity (logP) was 2.01.
`CCCC(=O)OCn1cnc(CSCCNC(=NC#N)NC)c1C`: in [20], the logD stood at 1.6.
`CCOC(=O)C(C)Oc1ccc(Oc2cnc3cc(F)ccc3n2)cc1` (centres undefined) returned a log partition coefficient (logP) in [7] of 3.65.
Regarding `CC(n1ccnc1)C(O)(c1ccc(F)cc1)c1ccc(F)cc1` (centres undefined), the logP in data set [29] was 3.13.
Consider `O=C1CC[C@@]2(O)[C@H]3Cc4ccc(O)c5c4[C@@]2(CCN3CC2CC2)[C@H]1O5`, for which the lipophilicity (logP) was 1.12.
`CCCC(=O)OCOc1ccccc1C(=O)NCN1CCOCC1` came in with a logD in data set [4] of 1.34.
In data set [9], `COC(=O)CC(CNC(=O)OC(C)(C)C)c1ccc(Cl)cc1` (centres undefined) returned a logD of 1.5.

The record behind these values is the SangsterLogP compilation.
